Patent publication US9980967B1, “Method for overcoming drug resistance of EGFR mutation and cancerous stemness of human non-small cell lung carcinoma” (NATIONAL CHIAO TUNG UNIVERSITY, priority 2017, dated 2018)

Assays:
[1] = target: T1, phosphorylated EGFR (Tyr1068) (Homo sapiens, UniProt P00533); test: Western blot of phosphorylated EGFR and total EGFR in A549 cells; assay type: cell-based; conditions: 10~40 μM for 24 hours
T1 construct: endogenous in cells; host or cells: A549 (ATCC CCL-185)
Experimental: (§1) At the end of treatment, the total protein extracts were prepared for Western blot analyses using specific antibodies, including rabbit anti-p-EGFR (Tyr1068), rabbit anti-EGFR and mouse anti-actin. Representative immunoblotting data were shown from one of three separate experiments with similar findings. Actin was an internal control protein.
(§2) Please refer to FIG. 14. The expressions of phosphorylated EGFR and total EGFR proteins after treatment with SP101 (10˜40 μM for 24 hours) in the K-Ras mutation A549 cells were analyzed by Western blot. […] Please refer to FIG. 15. We further examined the apoptosis levels of SP101 in A549 cells by Annexin V and PI staining. The cells were trypsinized and then incubated with propidium iodide (5 μl) and Annexin V-FITC (5 μl) at room temperature for 5 min before flow cytometry.

A549 cells [2] = test: Annexin V/PI apoptosis flow cytometry in A549 cells; assay type: cell-based, human; conditions: 30 μM for 24 hours
Experimental: At the end of treatment, apoptosis was measured by Annexin VPI staining using flow cytometry analysis. The population of Annexin V+/PI− cells represents cells undergoing early apoptosis (low right), whereas the fraction of Annexin V+/PI+ cell are those undergoing late apoptosis (upper right). The representative flow data were shown from one of three separate experiments with similar findings.
as §2

A549-ON cells = test: MTT cell viability assay in A549-ON cells; assay type: cell-based, human; conditions: 10~40 μM for 24 hours, concentration-dependent
Experimental: (§3) After treatment, the cells were re-cultured in fresh medium for 2 days. The cell viability was analyzed by MTT assays. The results were obtained from three independent experiments and the bar represents the mean±S.E.M. ***p<0.001 indicates significant difference between Gefitinib and SP101 treated samples.
(§4) A549 (ATCC number: CCL-185) was a non-small cell lung carcinoma cell line which expressed wild type EGFR and with K-Ras mutation (G12S). H1975 (ATCC number: CRL-5908) was a non-small cell lung carcinoma cell line which expressed EGFR L858R/T790M mutation. Oct4 and Nanog overexpression in A549-ON presented the properties of cancer stem-like cells, as well as epithelial-mesenchymal transdifferentiation. PLC26 was lung cancer cells that separated from pleural effusion of a clinical lung cancer patient (IRB number: 103-011-E). A549-ON cells were cultured in DMEM medium. A549 and H1975 cells were maintained in RPMI-1640 medium. […]
(§5) Please refer to FIG. 12. […] To compare the cell viability of SP101 and Gefitinib in K-Ras mutation-drug resistant A549 and A549-ON cell lines, the cells were treated with 0˜40 μM SP101 or Gefitinib for 24 hours, and analyzed by MTT assays. […] To determine the effect of SP101 and Gefitinib on the cell viability in cancer stem-like A549-ON cells, the cells were treated with 10˜40 μM SP101 or Gefitinib for 24 hours, and analyzed by MTT assays.

[3] = system: Oct4, Nanog and Survivin in A549-ON cells; test: Western blot and immunofluorescence of Oct4, Nanog and Survivin in A549-ON cells; assay type: cell-based, human
Experimental: as §1, with “anti-Survivin,” for “anti-p-EGFR (Tyr1068),”, “anti-cleaved caspase 3” for “anti-EGFR”, “[…]” for “Actin”
(§6) FIG. 17 is a result of immunofluorescence staining and confocal microscopy. Then green color indicates the location of Oct4 excited with 488 nm and the emission and collected in 493-518 nm. The β-tubulin was stained with Cy3-labeled mouse anti-β-tubulin antibody. The fluorescence intensity of β-tubulin (red color) was excited with 543 nm and the emission was collected in range of 560-580 nm. Blue fluorescence indicates nuclei following staining with Hoechst 33258 and was excited with 405 nm and the emission was collected in 415-450 nm. Overlapping localization is shown in the merged images.
as §6, with “18” for “17”, “Survivin protein” for “Oct4”
Oct4 and Nanog have been served as markers of tumorigenesis. Furthermore, Oct4 played a pivotal role in Gefitinib resistance in lung cancer stem cells. […] Please refer to FIG. 16. […] We further investigated the expression of Oct4 and Survivin by immunofluorescence staining and confocal microscopy. Please refer to FIGS. 17 and 18. The green fluorescence (dylight 488) indicated the location of Oct4 and Survivin. The blue fluorescence (Hoechst 33258) and red (Cy3) fluorescence represent nucleus and β-tubulin, respectively. Treatment with 30 μM SP101 for 24 hours inhibited Oct4 proteins expression and induced apoptotic bodies as shown in FIG. 17; moreover, the Survivin proteins were inhibited by SP101 treatment as shown in FIG. 18.

A549 cells [4] = test: MTT cell viability assay in A549 cells; assay type: cell-based, human; conditions: 0~40 μM for 24 hours, compared with Gefitinib
Experimental: as §3, §4, §5

[5] = 30 μM for 24 hours, immunofluorescence and confocal microscopy
[6] = 20<30 μM for 24 hours, Western blot

T1 sequence (P00533 25-1210): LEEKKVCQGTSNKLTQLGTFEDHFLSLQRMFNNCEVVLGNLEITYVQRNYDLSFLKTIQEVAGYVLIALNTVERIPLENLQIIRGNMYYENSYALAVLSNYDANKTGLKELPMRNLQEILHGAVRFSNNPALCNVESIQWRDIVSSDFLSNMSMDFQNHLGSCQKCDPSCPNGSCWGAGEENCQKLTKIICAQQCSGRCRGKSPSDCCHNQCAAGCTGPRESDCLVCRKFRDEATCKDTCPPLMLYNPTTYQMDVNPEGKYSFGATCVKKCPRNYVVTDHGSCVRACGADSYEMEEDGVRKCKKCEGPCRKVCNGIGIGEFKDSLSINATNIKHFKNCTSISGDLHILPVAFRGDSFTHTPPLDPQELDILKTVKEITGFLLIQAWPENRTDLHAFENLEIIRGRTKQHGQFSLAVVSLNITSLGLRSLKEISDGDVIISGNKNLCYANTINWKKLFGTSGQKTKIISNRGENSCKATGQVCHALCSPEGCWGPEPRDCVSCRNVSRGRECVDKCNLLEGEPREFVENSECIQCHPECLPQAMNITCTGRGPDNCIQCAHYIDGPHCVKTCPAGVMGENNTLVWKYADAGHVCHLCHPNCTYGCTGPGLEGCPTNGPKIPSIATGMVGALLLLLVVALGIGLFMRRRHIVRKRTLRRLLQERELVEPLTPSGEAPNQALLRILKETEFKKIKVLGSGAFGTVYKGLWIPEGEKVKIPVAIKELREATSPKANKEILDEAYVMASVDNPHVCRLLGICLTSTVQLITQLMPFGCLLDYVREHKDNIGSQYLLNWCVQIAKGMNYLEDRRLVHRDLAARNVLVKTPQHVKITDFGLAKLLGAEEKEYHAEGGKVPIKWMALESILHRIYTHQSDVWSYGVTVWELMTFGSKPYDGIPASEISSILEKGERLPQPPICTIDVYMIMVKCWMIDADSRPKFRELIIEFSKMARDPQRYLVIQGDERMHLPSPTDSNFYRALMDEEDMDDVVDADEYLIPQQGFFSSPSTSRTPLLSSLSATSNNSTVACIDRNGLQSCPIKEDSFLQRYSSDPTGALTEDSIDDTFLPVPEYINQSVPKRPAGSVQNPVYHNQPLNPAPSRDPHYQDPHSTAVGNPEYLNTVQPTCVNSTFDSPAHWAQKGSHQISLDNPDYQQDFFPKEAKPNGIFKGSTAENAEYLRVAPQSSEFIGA

CCCCCCCCCCCCOC(=O)CCC(=O)N1CCN(CCCOc2cc3c(Nc4ccc(F)c(Cl)c4)ncnc3cc2OC)CC1 [SP101, dodecyl 4-(4-(3-(4-(3-chloro-4-fluorophenylamino)-7-methoxyquinazolin-6-yloxy)propyl)piperazin-1-yl)-4-oxobutanoate]
phosphorylated EGFR (Tyr1068) protein levels [1]: significantly reduced | total EGFR protein levels [1]: did not alter | levels of Annexin V+/PI− cells (early apoptosis) and Annexin V+/PI+ cells (late apoptosis) (A549 cells [2]): significantly increased | cell viability (A549-ON cells): significantly reduced | Oct4 proteins expression [3, 5]: inhibited | Survivin proteins [3, 5]: inhibited | Nanog protein expression [3, 6]: significantly reduced | Oct4 protein expression [3, 6]: significantly reduced | Survivin protein expression [3, 6]: significantly reduced | reduction of cell viability (A549 cells [4]): more potent on the reduction of cell viability than Gefitinib
